Tests used:
[1] = Growth inhibition of human EKVX cells after 48 hrs by sulforhodamine B assay; type: functional
[2] = Growth inhibition of human PC3 cells after 48 hrs by sulforhodamine B assay; type: functional; conditions: PC-3, 48 h
NCI-H226 = assay: Growth inhibition of human NCI-H226 cells after 48 hrs by sulforhodamine B assay; type: functional; conditions: NCI-H226, 48 h
Tubulin (Bos taurus) [3] = target: T1, Tubulin (Bos taurus) (UniProt Q6B856+Q862L2+Q862F3); assay: Displacement of [3H]colchicine from bovine brain tubulin assembly at 1 uM
MDA-MB-468 = assay: Growth inhibition of human MDA-MB-468 cells after 48 hrs by sulforhodamine B assay; type: functional; conditions: MDA-MB-468, 48 h
K562 = assay: Growth inhibition of human K562 cells after 48 hrs by sulforhodamine B assay; type: functional; conditions: K562, 48 h
SN12C = assay: Growth inhibition of human SN12C cells after 48 hrs by sulforhodamine B assay; type: functional
NCI-H460 = assay: Growth inhibition of human NCI-H460 cells after 48 hrs by sulforhodamine B assay; type: functional; conditions: NCI-H460, 48 h
SK-MEL-28 = assay: Growth inhibition of human SK-MEL-28 cells after 48 hrs by sulforhodamine B assay; type: functional; conditions: SK-MEL-28, 48 h
A-431 = assay: Antiproliferative activity against human A431 cells after 48 hrs by sulforhodamine B assay; type: functional, cell-based; conditions: A-431, 48 h
[4] = Growth inhibition of human SF295 cells after 48 hrs by sulforhodamine B assay; type: functional; conditions: SF-295, 48 h
HeLa [5] = assay: Antiproliferative activity against human HeLa cells after 48 hrs by sulforhodamine B assay; type: functional, cell-based
[6] = Growth inhibition of human COLO205 cells after 48 hrs by sulforhodamine B assay; type: functional; conditions: COLO 205, 48 h
[7] = Growth inhibition of human OVCAR8 cells after 48 hrs by sulforhodamine B assay; type: functional; conditions: OVCAR-8, 48 h
[8] = Growth inhibition of human HCC2998 cells after 48 hrs by sulforhodamine B assay; type: functional; conditions: HCC 2998, 48 h
[9] = Growth inhibition of human […] cells after 48 hrs by sulforhodamine B assay; type: functional
SNB-19 = assay: Growth inhibition of human SNB19 cells after 48 hrs by sulforhodamine B assay; type: functional; conditions: SNB-19, 48 h
[10] = Growth inhibition of human RXF393 cells after 48 hrs by sulforhodamine B assay; type: functional; conditions: RXF 393, 48 h
U-251 = assay: Growth inhibition of human U251 cells after 48 hrs by sulforhodamine B assay; type: functional; conditions: U-251, 48 h
HT-29 = assay: Growth inhibition of human HT-29 cells after 48 hrs by sulforhodamine B assay; type: functional; conditions: HT-29, 48 h
[11] = Growth inhibition of human HCT15 cells after 48 hrs by sulforhodamine B assay; type: functional; conditions: HCT-15, 48 h
SW-620 = assay: Growth inhibition of human SW620 cells after 48 hrs by sulforhodamine B assay; type: functional; conditions: SW-620, 48 h
MDA-MB-231 = assay: Growth inhibition of human MDA-MB-231 cells after 48 hrs by sulforhodamine B assay; type: functional; conditions: MDA-MB-231, 48 h
CCRF-CEM = assay: Growth inhibition of human CCRF-CEM cells after 48 hrs by sulforhodamine B assay; type: functional
[12] = Growth inhibition of human UACC62 cells after 48 hrs by sulforhodamine B assay; type: functional; conditions: UACC-62, 48 h
SNB-75 = assay: Growth inhibition of human SNB75 cells after 48 hrs by sulforhodamine B assay; type: functional; conditions: SNB-75, 48 h
NCI-H522 = assay: Growth inhibition of human NCI-H522 cells after 48 hrs by sulforhodamine B assay; type: functional; conditions: NCI-H522, 48 h
ACHN = assay: Growth inhibition of human ACHN cells after 48 hrs by sulforhodamine B assay; type: functional
SF-268 = assay: Growth inhibition of human SF268 cells after 48 hrs by sulforhodamine B assay; type: functional; conditions: SF-268, 48 h
KM12 = assay: Growth inhibition of human KM12 cells after 48 hrs by sulforhodamine B assay; type: functional; conditions: KM12, 48 h
MDA-MB-435 = assay: Growth inhibition of human MDA-MB-435 cells after 48 hrs by sulforhodamine B assay; type: functional; conditions: MDA-MB-435, 48 h
DU-145 = assay: Growth inhibition of human DU145 cells after 48 hrs by sulforhodamine B assay; type: functional; conditions: DU-145, 48 h
[13] = Growth inhibition of human MOLT4 cells after 48 hrs by sulforhodamine B assay; type: functional; conditions: MOLT-4, 48 h
HL-60(TB) = assay: Growth inhibition of human HL-60(TB) cells after 48 hrs by sulforhodamine B assay; type: functional; conditions: HL-60, 48 h
MCF7 = assay: Growth inhibition of human MCF7 cells after 48 hrs by sulforhodamine B assay; type: functional; conditions: MCF7, 48 h
CAKI-1 = assay: Growth inhibition of human Caki1 cells after 48 hrs by sulforhodamine B assay; type: functional; conditions: CAKI-1, 48 h
Tubulin (Bos taurus) [14] = target: T1, Tubulin (Bos taurus); assay: Displacement of [3H]colchicine from bovine brain tubulin assembly at 5 uM
A498 = assay: Growth inhibition of human A498 cells after 48 hrs by sulforhodamine B assay; type: functional; conditions: A498, 48 h
[15] = Growth inhibition of human BT549 cells after 48 hrs by sulforhodamine B assay; type: functional; conditions: BT-549, 48 h
[16] = Growth inhibition of human UO31 cells after 48 hrs by sulforhodamine B assay; type: functional; conditions: UO-31, 48 h
[17] = Growth inhibition of human Hs 578T cells after 48 hrs by sulforhodamine B assay; type: functional
SK-MEL-2 = assay: Growth inhibition of human SK-MEL-2 cells after 48 hrs by sulforhodamine B assay; type: functional; conditions: SK-MEL-2, 48 h
IGROV-1 = assay: Growth inhibition of human IGROV1 cells after 48 hrs by sulforhodamine B assay; type: functional; conditions: IGROV-1, 48 h
[18] = Growth inhibition of human OVCAR4 cells after 48 hrs by sulforhodamine B assay; type: functional; conditions: OVCAR-4, 48 h
NCI/ADR-RES = assay: Growth inhibition of human NCI/ADR-RES cells after 48 hrs by sulforhodamine B assay; type: functional
[19] = Growth inhibition of human HOP92 cells after 48 hrs by sulforhodamine B assay; type: functional; conditions: HOP-92, 48 h
M14 = assay: Growth inhibition of human M14 cells after 48 hrs by sulforhodamine B assay; type: functional; conditions: M14, 48 h
HeLa [20] = assay: Antiproliferative activity against human HeLa cells overexpressing wild type beta3 tubulin after 48 hrs by sulforhodamine B assay; type: functional, cell-based
SK-MEL-5 = assay: Growth inhibition of human SK-MEL-5 cells after 48 hrs by sulforhodamine B assay; type: functional; conditions: SK-MEL-5, 48 h
A549 = assay: Growth inhibition of human A549 cells after 48 hrs by sulforhodamine B assay; type: functional; conditions: A549, 48 h
Malme-3M = assay: Growth inhibition of human MALME-3M cells after 48 hrs by sulforhodamine B assay; type: functional
786-0 = assay: Growth inhibition of human 786-0 cells after 48 hrs by sulforhodamine B assay; type: functional; conditions: 786-0, 48 h

Q: What does the source list for COc1ccc2c(c1)CCCN2c1nc(C)nc2oc(C)cc12?
A: GI50 [1]: < 10 nM; GI50 [2]: < 10 nM; GI50 (NCI-H226): 13 nM; inhibition (Tubulin (Bos taurus) [3]): 82%; GI50 (MDA-MB-468): < 10 nM; GI50 (K562): < 10 nM; GI50 (SN12C): < 10 nM; GI50 (NCI-H460): < 10 nM; GI50 (SK-MEL-28): < 10 nM; IC50 (A-431): 18 nM; GI50 [4]: < 10 nM; IC50 (HeLa [5]): 13.5 nM; GI50 [6]: < 10 nM; GI50 [7]: < 10 nM; GI50 [8]: 12 nM; GI50 [9]: < 10 nM; GI50 (SNB-19): < 10 nM; GI50 [10]: < 10 nM; GI50 (U-251): < 10 nM; GI50 (HT-29): < 10 nM; GI50 [11]: < 10 nM; GI50 (SW-620): < 10 nM; GI50 (MDA-MB-231): 11.4 nM; GI50 (CCRF-CEM): < 10 nM; GI50 [12]: < 10 nM; GI50 (SNB-75): < 10 nM; GI50 (NCI-H522): < 10 nM; GI50 (ACHN): < 10 nM; GI50 (SF-268): 16.8 nM; GI50 (KM12): < 10 nM; GI50 (MDA-MB-435): < 10 nM; GI50 (DU-145): < 10 nM; GI50 [13]: 15 nM; GI50 (HL-60(TB)): < 10 nM; GI50 (MCF7): < 10 nM; GI50 (CAKI-1): < 10 nM; inhibition (Tubulin (Bos taurus) [14]): 96%; GI50 (A498): < 10 nM; GI50 [15]: < 10 nM; GI50 [16]: < 10 nM; GI50 [17]: < 10 nM; GI50 (SK-MEL-2): < 10 nM; GI50 (IGROV-1): < 10 nM; GI50 [18]: 51 nM; GI50 (NCI/ADR-RES): < 10 nM; GI50 [19]: 58.6 nM; GI50 (M14): < 10 nM; IC50 (HeLa [20]): 9.1 nM; GI50 (SK-MEL-5): < 10 nM; GI50 (A549): < 10 nM; GI50 (Malme-3M): < 10 nM; GI50 (786-0): < 10 nM

Reference: ChEMBL document CHEMBL3400114, “The design, synthesis and biological evaluation of conformationally restricted 4-substituted-2,6-dimethylfuro[2,3-d]pyrimidines as multi-targeted receptor tyrosine kinase and microtubule inhibitors as potential antitumor agents” (Bioorg Med Chem, 2015)
